Assay results: patent US11696956B2, “Bicyclic peptide ligands specific for EphA2” (BicycleTx Limited, priority 2017, dated 2023)

Legend:
PC-3 xenograft = assay: Study 8: in vivo efficacy, PC-3 xenograft; details: qw
Protocol: The major endpoint was to see if the tumor growth could be delayed or mice could be cured. Tumor volume was measured three times weekly in two dimensions using a caliper, and the volume was expressed in mm^3 using the formula: V=0.5 a×b^2 where a and b are the long and short diameters of the tumor, respectively. The tumor size was then used for calculations of T/C value. The T/C value (in percent) is an indication of antitumor effectiveness; T and C are the mean volumes of the treated and control groups, respectively, on a given day. TGI was calculated for each group using the formula: TGI (%)=[1−(Ti−T0)/(Vi−V0)]×100; Ti is the average tumor volume of a treatment group on a given day, T0 is the average tumor volume of the treatment group on the day of treatment start, Vi is the average tumor volume of the vehicle control group on the same day with Ti, and V0 is the average tumor volume of the vehicle group on the day of treatment start.
A one-way ANOVA was performed to compare tumor volume among groups, and when a significant F-statistics (a ratio of treatment variance to the error variance) was obtained, comparisons between groups were carried out with Games-Howell test. […] P<0.05 was considered to be statistically significant.
The tumor cells were maintained in F-12K medium supplemented with 10% heat inactivated fetal bovine serum at 37° C. in an atmosphere of 5% CO2 in air. The tumor cells were routinely subcultured twice weekly. The cells growing in an exponential growth phase were harvested and counted for tumor inoculation.
52 animals were randomized when the average tumor volume reached 454 mm^3.
Tumor growth inhibition rate for test articles in the PC-3 xenograft model was calculated based on tumor volume measurements at day 20 after the start of the treatment.

Mouse EphA2 = molecular target: T1, Mouse EphA2 (Mus musculus, UniProt Q03145); assay: FP competition binding (Study 2, alternative protocol); details: summary of Table 10
T1 construct: EphA2 (Ecto); Mouse; C-; Sino; 50586-M08H; polyHis (C); purchased Sino Biological 50586-M08H

rat EphA2 = molecular target: T2, rat EphA2 (Rattus norvegicus, UniProt D3ZBN3); assay: as above; details: summary of Table 10
T2 construct: Rat; C-; In-house; N/A; polyHis (C); made in house

Human EphA2 = molecular target: T3, Human EphA2 (Homo sapiens, UniProt P29317); assay: as above; details: summary of Table 10
T3 construct: EphA2 (Ecto); Human; C-terminal; R&D systems; 3035-A2; polyHis (C); purchased R&D systems 3035-A2
T3 sequence (P29317 24-537 limits assumed): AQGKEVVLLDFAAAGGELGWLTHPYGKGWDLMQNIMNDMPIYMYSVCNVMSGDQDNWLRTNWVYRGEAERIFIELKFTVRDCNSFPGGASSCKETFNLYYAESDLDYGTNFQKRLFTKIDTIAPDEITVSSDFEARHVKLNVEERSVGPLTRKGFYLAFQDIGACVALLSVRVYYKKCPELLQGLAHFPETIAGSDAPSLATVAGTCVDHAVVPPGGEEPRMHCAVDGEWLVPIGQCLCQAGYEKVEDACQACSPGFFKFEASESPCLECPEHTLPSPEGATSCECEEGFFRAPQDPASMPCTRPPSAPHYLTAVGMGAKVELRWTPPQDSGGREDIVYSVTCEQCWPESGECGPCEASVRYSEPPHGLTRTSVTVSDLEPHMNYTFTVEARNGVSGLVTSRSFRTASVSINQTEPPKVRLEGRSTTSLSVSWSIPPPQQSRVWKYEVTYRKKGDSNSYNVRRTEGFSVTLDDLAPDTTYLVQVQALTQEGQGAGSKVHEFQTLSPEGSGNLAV

T1 sequence (Q03145 26-538 limits assumed): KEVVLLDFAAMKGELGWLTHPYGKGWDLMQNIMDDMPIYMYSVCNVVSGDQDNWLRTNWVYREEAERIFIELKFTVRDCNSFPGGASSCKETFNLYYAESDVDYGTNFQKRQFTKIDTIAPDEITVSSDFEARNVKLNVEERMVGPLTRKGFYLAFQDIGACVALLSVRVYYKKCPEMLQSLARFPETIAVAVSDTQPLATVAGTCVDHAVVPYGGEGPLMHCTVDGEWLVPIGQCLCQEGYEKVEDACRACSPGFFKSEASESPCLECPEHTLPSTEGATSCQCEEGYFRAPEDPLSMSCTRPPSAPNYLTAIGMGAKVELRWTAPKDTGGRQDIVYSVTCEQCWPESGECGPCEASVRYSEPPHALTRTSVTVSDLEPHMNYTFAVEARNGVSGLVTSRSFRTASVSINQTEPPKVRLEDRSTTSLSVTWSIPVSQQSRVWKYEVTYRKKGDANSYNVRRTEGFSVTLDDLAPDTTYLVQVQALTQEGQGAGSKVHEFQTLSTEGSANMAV
T2 sequence (D3ZBN3 26-205): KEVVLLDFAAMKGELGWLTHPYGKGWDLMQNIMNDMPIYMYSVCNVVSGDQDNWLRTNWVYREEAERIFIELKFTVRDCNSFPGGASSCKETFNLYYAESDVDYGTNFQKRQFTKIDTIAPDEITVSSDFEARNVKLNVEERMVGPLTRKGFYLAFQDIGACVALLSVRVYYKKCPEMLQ

For CC(=O)O[C@@]12CO[C@@H]1C[C@H](O)[C@@]1(C)C(=O)[C@H](O)C3=C(C)[C@@H](OC(=O)[C@H](O)[C@@H](NC(=O)OC(C)(C)C)c4ccccc4)C[C@@](O)([C@@H](OC(=O)c4ccccc4)[C@H]21)C3(C)C [Docetaxel], the “animal body weight loss” value (PC-3 xenograft; 15 mg/kg) was “severe animal body weight loss”, the TGI (PC-3 xenograft; 15 mg/kg, day 20) was 101.8% and the “TV (tumor volume)” value (PC-3 xenograft; 15 mg/kg, day 20) was 419 mm^3. The Mean tumor volume (PC-3 xenograft; 15 mpk, day 0) was 453 ± 62 mm^3, the Mean tumor volume (PC-3 xenograft; 15 mpk, day 2) was 584 ± 72 mm^3 and the Mean tumor volume (PC-3 xenograft; 15 mpk, day 4) was 632 ± 56 mm^3. It also gave a Mean tumor volume (PC-3 xenograft; 15 mpk, day 6) of 636 ± 48 mm^3, a Mean tumor volume (PC-3 xenograft; 15 mpk, day 8) of 568 ± 50 mm^3 and a Mean tumor volume (PC-3 xenograft; 15 mpk, day 10) of 408 ± 31 mm^3. The Mean tumor volume (PC-3 xenograft; 15 mpk, day 13) was 374 ± 26 mm^3, the Mean tumor volume (PC-3 xenograft; 15 mpk, day 15) was 388 ± 36 mm^3 and the Mean tumor volume (PC-3 xenograft; 15 mpk, day 17) was 361 ± 25 mm^3. For the same molecule, the Mean tumor volume (PC-3 xenograft; 15 mpk, day 20) was 419 ± 31 mm^3, the T/C (PC-3 xenograft; 15 mpk, day 20) was 17.7% and the TGI (PC-3 xenograft; 15 mpk, day 20) was 101.8%. The “Tumor Volume” value (PC-3 xenograft; 15 mpk, day 20, Mean ± SEM) was 419 ± 31 mm^3.
For “(β-Ala)-Sar10-A(HArg)DC(HyP)LVNPLCLHP(D-Asp)W(HArg)C [Compound 66]”, the “binding to mouse EphA2” value (Mouse EphA2) was “bind with high affinity” and the “binding to rat EphA2” value (rat EphA2) was “bind with high affinity”.
“(β-Ala)-Sar10-A(HArg)DCPLVNPLCLHPGVVTC [Compound 67]” was tested, and the “binding to mouse EphA2” value (Mouse EphA2) was “bind with high affinity” and the “binding to rat EphA2” value (rat EphA2) was “bind with high affinity”.
“Ac-CPLVNPLCLHPGVVTCLHG-Sar6-(D-K) [Compound 77]” was tested, and the “binding to human EphA2” value (Human EphA2) was “binds” and the “binding to mouse EphA2” value (Mouse EphA2) was “binds”.
